Patent US20200017495A1, “NOVEL HETEROCYCLIC COMPOUNDS AND THEIR USE IN PREVENTING OR TREATING BACTERIAL INFECTIONS” (priority 2017, published 2020)
Where two headings read alike, the source gives them in different places.

Columns and labels:
Assay type in all cases: cell-based
[1] = tested on: Klebsiella oxytoca (KOX) isolates; test: MIC of compounds alone and combined with antibacterials, broth microdilution (CLSI); settings: Klebsiella oxytoca
How it was run: (§1)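 First, log-phase suspensions are brought to 5.10^5 CFU/mL final in ca-MHB; plates then incubate 16-20 h at 35° C in air. Growth is judged visually, giving the compound MIC alone and the antibacterial MIC at each compound concentration.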

[2] = tested on: Enterobacter aerogenes (EAE) isolates; test: as above; settings: Klebsiella aerogenes
How it was run: as §1

[3] = tested on: Morganella morganii (MMO) isolates; test: as above; settings: Morganella morganii
How it was run: as §1

[4] = tested on: Citrobacter freundii (CFR) isolates; test: as above; settings: Citrobacter freundii
How it was run: as §1

[5] = tested on: Providencia stuartii (PST) isolates; test: as above; settings: Providencia stuartii, read-out: MIC
How it was run: (§2)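 Genotyped isolates; cpd ± antibacterial, DMSO spots; ca-MHB, 5.10^5 CFU/mL; 35° C, 16-20 h, air; visual MIC; ATB MIC per cpd concentration.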

[6] = tested on: Salmonella typhimurium (STY) isolates; test: as above; settings: Salmonella enterica, TYPHIMURIUM
How it was run: as §2

[7] = tested on: Proteus mirabilis (PMI) isolates; test: microbe, parasite or virus in culture; settings: Proteus mirabilis
How it was run: as §1

Measured: MIC

C=CC1=C(C(=O)O)N2C(=O)[C@@H](NC(=O)/C(=N\O)c3csc(N)n3)[C@H]2SC1 [CDR, Cefdinir]
> 128 µg/mL: [2]; strain EAE 49469, genotype AmpC, read-out: MIC
128 µg/mL: [3]; strain MMO UFR144, genotype TEM-1, CTX-M-15, read-out: MIC | [3]; strain MMO UFR241, genotype TEM-1, CTX-M-15, read-out: MIC | [3]; strain MMO UFR247, genotype DHA-1, read-out: MIC
32 µg/mL: [3]; strain MMO UFR244, genotype DHA-1, read-out: MIC | [5]; strain PST UFR95, genotype TEM-24
0.5 µg/mL: [6]
64 µg/mL: [3]; strain MMO UFR240, genotype CTX-M-9, read-out: MIC | [3]; strain MMO UFR243, genotype DHA-1, read-out: MIC | [3]; strain MMO UFR245, genotype DHA-1, read-out: MIC | [3]; strain MMO UFR246, genotype DHA-1, read-out: MIC | [5]; strain PST UFR94, genotype CTX-M-14 | [7]; strain PMI UFR120, genotype TEM-1, SHV-11, CTX-M-14, read-out: MIC
256 µg/mL: [2]; strain EAE UFR202, genotype TEM-24, read-out: MIC | [2]; strain EAE UFR213, genotype TEM-24, read-out: MIC | [3]; strain MMO 200321, genotype TEM-1, CTX-M-15, OXA-1, read-out: MIC | [4]; strain CFR UFR146, genotype TEM-1, KPC-2, read-out: MIC | [4]; strain CFR UFR254, genotype VEB-1b, OXA-48, qnrA, read-out: MIC | [5]; strain PST UFR235, genotype VEB-1 | [7]; strain PMI UFR125, genotype CTX-M-71, read-out: MIC
16 µg/mL: [7]; strain PMI UFR82, genotype CMY-2, read-out: MIC | [7]; strain PMI UFR122, genotype TEM-1, CTX-M-15, read-out: MIC | [7]; strain PMI UFR130, genotype CMY-2, read-out: MIC
> 256 µg/mL: [1] | [2] | [3] | [4]; strain CFR UFR10, genotype OXA-48 | [4]; strain CFR UFR11, genotype TEM-1, OXA-1, OXA-48 | [4]; strain CFR UFR83, genotype TEM-3, AmpC | [4]; strain CFR UFR248, genotype CTX-M-15 | [4]; strain CFR UFR249, genotype TEM-1, CTX-M-15 | [4]; strain CFR UFR250, genotype TEM-1, SHV-28, CTX-M-15 | [4]; strain CFR UFR253, genotype TEM-1, SHV-12, OXA-48 | [7]; strain PMI UFR121, genotype TEM-1, TEM-52 | [7]; strain PMI UFR123, genotype CTX-M-1 | [7]; strain PMI UFR124, genotype CTX-M-2 | [7]; strain PMI UFR126, genotype TEM-2, PER-1 | [7]; strain PMI UFR127, genotype VEB-1 | [7]; strain PMI UFR129, genotype TEM-1, VEB-6 | [7]; strain PMI UFR237, genotype VEB-6
